Structures can show the parent of a compound that is named as a salt.
System: advanced Hodgkin's lymphoma (HL)
Assay: not given
Conditions: patients with no treatment response to any approved drug; cited from earlier work

| Compound | treatment outcome in advanced Hodgkin's lymphoma |
| --- | --- |
| nivolumab [Opdvio] | complete remission |
| pembrolizumab [Keytruda] | complete remission |

Molecular target: interaction between PD-1 and PD-L1 (Homo sapiens (Human), UniProt Q9NZQ7)
Assay: Cisbio PD-1/PD-L1 binding assay kit (HTRF)
Conditions: 8-10 concentrations, read-out: IC50, inhibitory activity at molecular level on the interaction between PD-1 and PD-L1
Excerpt: • 1. In vitro activity evaluation: Cisbio PD-1/PD-L1 binding assay kit was applied for the detection method of in vitro enzymology level. Screening Principles and Methods of PD-1/PD-L1 Small Molecule Inhibitors • 1) Principle: PD-1 protein is with HIS tag, and PD-1 ligand PD-L1 is with hFc tag. Eu labeled anti-hFc antibody and XL665 labeled anti-HIS antibody are combined with the above two label proteins respectively. After laser excitation, energy can be transferred from donor Eu to receptor XL665, allowing XL665 to glow. […] Reagents should be dispensed in the following order. For 384-well white ELISA plate, 2 μl of diluent or target compound diluted with diluent was added to each well, and then 4 μl of PD-1 protein and 4 μl of PD-L1 protein were added per well, incubated for 15 min at room temperature; and 10 μl of a mixture of anti-Tag1-Eu3+ and anti-Tag2-XL665 was added per well and incubated for 1 h to 4 h at room temperature and the fluorescence signals at 665 nm and 620 nm were measured with an Envison instrument. HTRF rate=(665 nm/620 nm)*10^4. 8-10 concentrations were detected for each compound and IC50 was calculated by Graphpad software. • 3) The results of the screening were shown in Table 1.

Chain of interaction between PD-1 and PD-L1 (Q9NZQ7 19-238): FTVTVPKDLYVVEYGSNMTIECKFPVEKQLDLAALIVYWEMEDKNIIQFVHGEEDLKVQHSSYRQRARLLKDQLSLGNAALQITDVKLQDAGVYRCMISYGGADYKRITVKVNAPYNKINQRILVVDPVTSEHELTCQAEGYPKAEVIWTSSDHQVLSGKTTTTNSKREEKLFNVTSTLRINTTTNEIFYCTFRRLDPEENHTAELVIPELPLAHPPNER

| IC50 | Compound |
| --- | --- |
| 81.6 nM | NC(=O)[C@H](CO)NCc1cc(Cl)c(OCc2cccc(-c3ccccc3)c2Br)cc1OCC1CC1 (stereo in doubt) [Example 9, 2-(4-(2-bromo-3-phenylbenzyloxy)-5-chloro-2-(cyclopropylmethoxy)benzylamino)-3-hydroxypropanamide] |
| 191 nM | CON(C)C(=O)COc1cc(OCc2cccc(-c3ccccc3)c2Br)c(Cl)cc1CN[C@@H](CO)C(=O)O [Example 12, N-(4-(2-bromo-3-phenylbenzyloxy)-5-chloro-2-(N-methoxy-N-methylcarbamoylmethoxy)benzyl)serine] |
| 42.5 nM | CN(C)C(=O)COc1cc(OCc2cccc(-c3ccccc3)c2Br)c(Cl)cc1CNC(CO)C(=O)O (stereo not shown) [Example 6] |
| 1150 nM | CC(=O)NCCNCc1cc(Cl)c(OCc2cccc(-c3ccccc3)c2Br)cc1OCC1CC1 [Example 5, N-acetylaminoethyl-4-(2-bromo-3-phenylbenzyloxy)-5-chloro-2-(cyclopropylmethoxy)benzylamine] |
| 1800 nM | C#CCOc1cc(OCc2cccc(-c3ccccc3)c2Br)c(Cl)cc1CNCCNC(C)=O [Example 4, N-acetylaminoethyl-4-(2-bromo-3-phenylbenzyloxy)-5-chloro-2-(prop-2-ynyloxy)benzylamine] |
| 10.2 nM | C[C@@H](O)[C@H](NCc1cc(Cl)c(OCc2cccc(-c3ccccc3)c2Br)cc1OCC1CC1)C(=O)O [Example 8, N-(4-(2-bromo-3-phenylbenzyloxy)-5-chloro-2-(cyclopropylmethoxy)benzyl)threonine] |
| 41.3 nM | O=C(O)[C@H](CO)NCc1cc(Cl)c(OCc2cccc(-c3ccccc3)c2Br)cc1OCC(=O)N1CCOCC1 [Example 13, N-(4-(2-bromo-3-phenylbenzyloxy)-5-chloro-2-(2-morpholino-2-oxoethoxy)benzyl)serine] |
| 40.5 nM | O=C(O)[C@@H]1C[C@H](O)CN1Cc1cc(Cl)c(OCc2cccc(-c3ccc4c(c3)OCCO4)c2Br)cc1OCC1CC1 [Example 17, (S,S)—N-(4-(2-bromo-3-(2,3-dihydrobenzo[b][1,4]dioxin-6-yl)benzyloxy)-5-chloro-2-(cyclopropylmethoxy)benzyl)-4-hydroxyproline] |
| 41.7 nM | O=C(O)[C@H](CO)NCc1cc(Cl)c(OCc2cccc(-c3ccccc3)c2Br)cc1OCC1CC1 [Example 14, (S)—N-(4-(2-bromo-3-phenylbenzyloxy)-5-chloro-2-(cyclopropylmethoxy)benzyl)serine] |
| 312 nM | NC(=O)COc1cc(OCc2cccc(-c3ccccc3)c2Br)c(Cl)cc1CN[C@@H](CO)C(=O)O [Example 1, (S)—N-(4-(2-bromo-3-phenylbenzyloxy)-5-chloro-2-(carbamoylmethoxy)benzyl)serine] |
| 732 nM | COc1cc(OCc2cccc(-c3ccccc3)c2Br)c(Cl)cc1CNCCNC(C)=O [Example 2, N-acetylaminoethyl-4-(2-bromo-3-phenylbenzyloxy)-5-chloro-2-methoxy benzylamine hydrochloride] |
| 183 nM | O=C(COc1cc(OCc2cccc(-c3ccccc3)c2Br)c(Cl)cc1CN1CCCC[C@H]1C(=O)O)NO [Example 15, (S)—N-(4-(2-bromo-3-phenylbenzyloxy)-5-chloro-2-(N-hydroxycarbamoylmethoxy)benzyl)Pipecolinic Acid] |
| 1000 nM | CC(=O)NCCNCc1cc(Cl)c(OCc2cccc(-c3ccccc3)c2Br)cc1OCC1CC1 [Example 10, N-acetylaminoethyl-4-(2-bromo-3-phenylbenzyloxy)-5-chloro-2-(cyclopropylmethoxy)benzylamine] |
| 1410 nM | NC(=O)NCCC[C@H](NCc1cc(Cl)c(OCc2cccc(-c3ccccc3)c2Br)cc1OCC1CC1)C(=O)O [Example 11, N-(4-(2-bromo-3-phenylbenzyloxy)-5-chloro-2-(cyclopropylmethoxy)benzyl)Citrulline] |
| 126 nM | C=CCOc1cc(OCc2cccc(-c3ccccc3)c2Br)c(Cl)cc1CNCCNC(C)=O [Example 3, N-acetylaminoethyl-4-(2-bromo-3-phenylbenzyloxy)-5-chloro-2-allyloxy benzylamine] |

System: pleural mesothelioma (PM)
Assay: not given
Conditions: 25 patients with pleural mesothelioma; cited from earlier work

| Compound | disease control rate | overall response rate (ORR) |
| --- | --- | --- |
| pembrolizumab [Keytruda] | 76% | 28% |
